Experimental data as given in PMC8448163 (Antimicrobial Agents and Chemotherapy, 2021).
Values joined by “and” are separate entries in the source; they are usually repeats but may differ in a detail not shown here. Identical values can stand only once. Like-named read-outs stand apart in the source and are kept apart here.

How the values were obtained:
in vivo [1] = conditions: rat, po
poliovirus = conditions: in vitro, in combination with capsid inhibitors including pocapavir; cited from earlier work
[2] = for mean and individual trough concentrations: LLOQ 1.00 ng/ml; for time of peak of mean plasma concentration: MAD BID
CV-A16 = assay: microbe, parasite or virus in culture; type: cell-based; conditions: Enterovirus A, CVA16
clinical [3] = conditions: human, in vivo
in vivo [4] = conditions: dog, po
[5] = in vitro
[6] = test system: EV panel comprising 47 PV strains and 36 nonpolio EV strains; assay: microbe, parasite or virus in culture; type: cell-based; conditions: Enterovirus, read-out: EC50, mean
ECV-11 isolates = assay: organism not typed; type: cell-based; conditions: read-out: EC50, range
clinical [7] = conditions: human, in vivo; remark: listed apart in the source
healthy adult volunteers [8] = assay: Phase 1 SAD study, safety and tolerability
healthy adult volunteers [9] = assay: Phase 1 MAD study, safety and tolerability
[10] = healthy adult males (n = 14), single oral doses 200 mg to 2,000 mg; cited from earlier work
[11] = SAD, 10-fold increase in dose from 200 mg to 2,000 mg
[12] = MAD, one participant, 2,000 mg BID cohort, day 7, normal two days later

C#CC[C@@H](C(=O)N[C@H](/C=C/C(=O)OCC)C[C@@H]1CCNC1=O)n1cccc(NC(=O)c2cc(C)on2)c1=O [V-7404]
NOAEL (in vivo [1]): 1500 mg/kg/day | activity in combination with antiviral capsid inhibitors (poliovirus): synergistic activity | mean and individual trough concentrations ([2]; MAD 500 mg QD, days 2, 3, 7, 11 and 14): BLQ | mean and individual trough concentrations ([2]; MAD 1,000 mg QD, days 2, 3, 7, 11 and 14): BLQ | accumulation (RAUC and RCmax) ([2]; MAD 2,000 mg BID, day 14): no accumulation | mean trough concentrations ([2]; MAD 2,000 mg BID, days 2, 3, 7, 11 and 14): either BLQ or were less than twice the LLOQ of 1.00 ng/ml | time of peak of mean plasma concentration ([2]; following the first dose of the day): 0.50 h | time of peak of mean plasma concentration ([2]; following the second dose of the day, day 1): 0.75 h | time of peak of mean plasma concentration ([2]; following the second dose of the day, day 14): 0.50 h | RAUC and RCmax, all ratios ([2]; MAD QD, day 14, all dose levels): less than 1.5 | mean trough concentrations ([2]; MAD, 2,000 mg QD): either BLQ or were less than twice the lower limit of quantification (LLOQ) of 1.00 ng/ml | CL/F ([2]; human, in vivo): 1,987 liters/h | CLss/F ([2]; human, in vivo): 2125 L/h | Vz/F ([2]; human, in vivo): 6542 L | t1/2 ([2]; human, in vivo): 136.2 min | CL/F ([2]; human, in vivo, po, 500 mg): 2,076 liters/h | CL/F (CLss/F) ([2]; human, in vivo, po, 500 mg): 1,656 liters/h | EC50 (CV-A16): 5.99 µM | Tmax (clinical [3]): 15 to 37.8 min | AUC(0-inf) (clinical [3]; po, 200 mg, AUC (AUC0–inf)): 77.4 ng·h/mL | Cmax (clinical [3]; po, 200 mg, Cmax): 83.3 ng/mL | Vd/F (clinical [3]; po, 200 mg, Vz/F): 1170 L | half-life (clinical [3]; po, 200 mg, t1/2): 18.9 min | Tmax (clinical [3]; po, 200 mg, tmax): 30 min | half-life (clinical [3]; t1/2, range across cohorts): 19.2 to 140 min | NOAEL (in vivo [4]): 1500 mg/kg/day | geometric mean AUC0–inf lower for fed compared to fasted (SAD 500 mg): 50% | geometric mean Cmax lower for fed compared to fasted (SAD 500 mg): 66% | increase of geometric mean AUC0–inf [11]: 14.2 fold | increase of geometric mean Cmax [11]: 7.6 fold | time of peak of mean plasma concentrations (human, in vivo): 0.25 to 0.75 h | Cmax (human, in vivo, po, 500 mg): 366.6 ng/mL | genotoxicity study results [5]: negative | EC50 [6]: 379 nM and 0.198 µg/mL | EC50 (ECV-11 isolates): 0.032 to 0.352 µM | Tmax (clinical [7]): 15 to 30 min | Vd/F (clinical [7]; Vz/F): 3780 L | AUC (clinical [7]; po, 500 mg, AUC (AUC0–tau)): 302 ng·h/mL | Cmax (clinical [7]; po, 500 mg, Cmax): 247 ng/mL | Cmax at 14 days (clinical [7]; po, 500 mg, Cmax): 370 ng/mL | Vd/F at 14 days (clinical [7]; po, 500 mg, Vz/F): 3020 L | Tmax (clinical [7]; po, 500 mg, tmax): 28.8 min | Tmax at 14 days (clinical [7]; po, 500 mg, tmax): 15 min | half-life (clinical [7]; t1/2): 79.2 min | Tmax (clinical [7]; tmax(0–4 h)): 30 min | Tmax (clinical [7]; tmax(4–24 h)): 45 min | deaths or SAEs (healthy adult volunteers [8]; SAD study): No deaths or SAEs were reported | participants with moderate TEAEs (healthy adult volunteers [8]; SAD, V-7404 group, 1/24 participants): 4.2% | participants with mild treatment-emergent AEs (TEAEs) (healthy adult volunteers [8]; SAD, V-7404 group, 4/24 participants): 16.7% | elevated lipase (healthy adult volunteers [8]; SAD, one participant, 1,000 mg cohort, day 2, asymptomatic, normal 3 days later): 4.0 × the upper limit of normal (U | deaths or SAEs (healthy adult volunteers [9]; MAD study): No deaths or SAEs were reported | proportion of related TEAEs (healthy adult volunteers [9]; MAD, 1,000 mg QD): 12.5% | proportion of related TEAEs (healthy adult volunteers [9]; MAD, 2,000 mg BID): 75% | participants with increased lipase levels (asymptomatic) leading to discontinuation (healthy adult volunteers [9]; MAD, 2,000 mg BID cohort, 1/41 participants): 2.4% | proportion of related TEAEs (healthy adult volunteers [9]; MAD, 2,000 mg QD): 22.2% | participants with moderate TEAEs (healthy adult volunteers [9]; MAD, V-7404 group, 2/33 participants): 6.1% | participants with mild TEAEs (healthy adult volunteers [9]; MAD, V-7404 group, 10/33 participants): 30.3% | amylase (healthy adult volunteers [9]; [12]): 2.7 × ULN | lipase (healthy adult volunteers [9]; [12]): 4.5 × ULN | tolerability [10]: well tolerated with no serious adverse events (SAEs)
